# Source: patent publication US8008283B2, “Methods and compositions for the treatment of neuropsychiatric disorders” (Neurotherapeutics Pharma, Inc., priority 2005, dated 2011)
# Key:
# [1] = test system: human patients; settings: Haglund and Hochman, J. Neurophysiol. 2005; cited from earlier work
# [2] = test system: rat hippocampal slices; assay: stimulation evoked after discharge activity in rat hippocampal slices (Example 68); type: cell-based
# Protocol: Sprague-Dawley rats (males and females; 25-35 days old) were decapitated, the top of the skull was rapidly removed, and the brain chilled with ice-cold oxygenated slicing medium. […] A hemisphere of brain containing hippocampus was blocked and glued (cyanoacrylic adhesive) to the stage of a Vibroslicer (Frederick Haer, Brunsick, Me.). […] In the recording chamber, the slices were perfused with oxygenated recording medium at 34-35° C. All animal procedures were conducted in accordance with NIH and University of Washington animal care guidelines. In most slice experiments, simultaneous extracellular field electrode recordings were obtained from CA1 and CA3 areas. A bipolar tungsten stimulating electrode was placed on the Schaffer collaterals to evoke synaptically-driven field responses in CA1. Stimuli consisted of 100-300 μsec duration pulses at an intensity of four times the population-spike threshold. After discharges were evoked by a 2 second train of such stimuli delivered at 60 Hz.
# [3] = test system: rats; assay: fear potentiated startle (FPS) test in rats; type: in vivo, rat
# Protocol: Twenty-four rats received a 30 min period of habituation to the FPS apparatus. Twenty-four hours later, baseline startle amplitudes were collected. The rats were then divided into three matched groups based on baseline startle amplitudes. […] Groups 1 and 2 therefore consisted of 8 rats each, with Group 3 consisting of […]. Following baseline startle amplitude collection, 20 light/shock pairings were delivered on two sessions over two consecutive days (i.e., 10 light/shock pairings per day). […] Immediately following injections, startle amplitudes were assessed during startle alone trials and startle plus fear (light followed by startle) trials. Fear potentiated startle (light+startle amplitudes minus startle alone amplitudes) was compared between the treatment groups.
# Animals were trained and tested in four identical stabilimeter devices (Med-Associates). Briefly, each rat was placed in a small Plexiglas cylinder. The floor of each stabilimeter consisted of four 6-mm-diameter stainless steel bars spaced 18 mm apart through which shock can be delivered. Cylinder movements result in displacement of an accelerometer where the resultant voltage is proportional to the velocity of the cage displacement. Startle amplitude is defined as the maximum accelerometer voltage that occurs during the first 0.25 sec after the startle stimulus is delivered. […] Each stabilimeter was enclosed in a ventilated, light-, and sound-attenuating box. All sound level measurements were made with a Precision Sound Level Meter. The noise of a ventilating fan attached to a sidewall of each wooden box produced an overall background noise level of 64 dB. The startle stimulus was a 50 ms burst of white noise (5 ms rise-decay time) generated by a white noise generator. The visual conditioned stimulus employed was illumination of a light bulb adjacent to the white noise source. The unconditioned stimulus was a 0.6 mA foot shock with duration of 0.5 sec, generated by four constant-current shockers located outside the chamber. The presentation and sequencing of all stimuli were under the control of the microcomputer.
# FPS procedures consisted of 5 days of testing; during days 1 and 2 baseline startle responses were collected, days 3 and 4 light/shock pairings were delivered, day 5 testing for fear potentiated startle was conducted.
# Matching: On the first two days all rats were placed in the Plexiglas cylinders and 3 min later presented with 30 startle stimuli at a 30 sec interstimulus interval.
# Training: On the following 2 days, rats were placed in the Plexiglas cylinders. […] The shock was delivered during the last 0.5 sec of the 3.7 sec CSs at an average intertrial interval of 4 min (range, 3-5 min).
# These initial startle stimuli were used to again habituate the rats to the acoustic startle stimuli. Thirty seconds after the last of these stimuli, each animal received 60 startle stimuli with half of the stimuli presented alone (startle alone trials) and the other half presented 3.2 sec after the onset of the 3.7 sec CS (CS-startle trials). All startle stimuli are presented at a mean 30 sec interstimulus interval, randomly varying between 20 and 40 sec.
# Measures: The treatment groups were compared on the difference in startle amplitude between CS-startle and startle-alone trials (fear potentiation).
# The therapeutic efficacy of several bumetanide analogs in alleviating anxiety was examined using the fear potentiated startle (FPS) test in rats as described above.
# [4] = test system: synchronized discharges; settings: Hochman et al. Science 270:99-102, 1995; cited from earlier work
# [5] = co-treatment with an NMDA receptor antagonist, non-NMDA receptor and Ca2+ channel antagonists together with furosemide; Collins et al. 1998; cited from earlier work
# [6] = test system: rat hippocampal slices; assay: spontaneous epileptiform burst discharges across a spectrum of in vitro models in hippocampal slices (Example 69); type: cell-based; settings: for spontaneous burst discharges, CA3 and CA1: high-K+ (10 mM) medium
# Protocol: Sprague-Dawley rats (males and females; 25-35 days old) were decapitated, the top of the skull was rapidly removed, and the brain chilled with ice-cold oxygenated slicing medium. […] A hemisphere of brain containing hippocampus was blocked and glued (cyanoacrylic adhesive) to the stage of a Vibroslicer (Frederick Haer, Brunsick, Me.). […] In the recording chamber, the slices were perfused with oxygenated recording medium at 34-35° C. All animal procedures were conducted in accordance with NIH and University of Washington animal care guidelines.
# In most slice experiments, simultaneous extracellular field electrode recordings were obtained from CA1 and CA3 areas. A bipolar tungsten stimulating electrode was placed on the Schaffer collaterals to evoke synaptically-driven field responses in CA1. Stimuli consisted of 100-300 μsec duration pulses at an intensity of four times the population-spike threshold. After discharges were evoked by a 2 second train of such stimuli delivered at 60 Hz.
# [7] = test system: rats; settings: Granados-Soto et al. Pain 2005; cited from earlier work
# [8] = 2.5 mM furosemide, after 20 minutes of perfusion
smiles,measurement,setting,value
NS(=O)(=O)c1cc(C(=O)O)c(NCc2ccco2)cc1Cl [furosemide],epileptic activity and normal brain activity in humans,[1],able to block epileptic activity in humans while not affecting normal brain activity
same,CA1 field response to single test pulse,[2]; [8],hyper-excitable field response
same,stimulation-evoked optical changes,[2]; [8],blocked
same,electrical after discharge activity,"[2]; 2.5 mM furosemide, after 20 minutes of perfusion, Schaffer collateral stimulation 60 Hz 2 s, CA1",blocked
same,recovery after washout,[2]; after 45 minutes of perfusion with normal bathing medium,restoration of initial response patterns
same,minimum concentration required to block both the after discharges and optical changes,[2]; dose-dependency experiments,1.25 mM
same,difference score one week after treatment,"[3]; compared with vehicle alone, FIG. 10",higher difference score
same,statistical difference from vehicle in difference score one week after treatment,[3]; error bars large for vehicle-treated animals,possibly a small difference
same,difference score (startle alone - fear potentiated startle) on the test day,"[3]; i.v. in DMSO, furosemide 100 mg/kg, bumetanide 70 mg/kg, compared with vehicle alone, FIG. 8",statistically significantly lower difference score
same,synchronized discharges and hyperexcited synaptic responses,[4],reversibly blocked synchronized discharges without reducing hyperexcited synaptic responses
same,reduction of alcohol-dependent cerebrocortical damage,[5],75-85%
same,latency of block of bursting,"[6]; 0-Ca++ experiments, 5 mM furosemide",15 to 20 min
same,spontaneous burst discharges,[6]; 200-300 μM 4-aminopyridine,blocked
same,"anticonvulsant resistant bursts, entorhinal cortex","[6]; 3 hours of perfusion with 0-Mg++ medium, one hour after addition of furosemide",blocked
same,spontaneous bursting activity in both CA1 and CA3,[6]; all experiments,reversibly blocked
same,latency of block of bursting,"[6]; all other protocols, 2.5 mM furosemide",20 to 60 min
same,spontaneous burst discharges,[6]; bicuculline at 50-100 μM,blocked
same,"spontaneous burst discharges, CA3 and CA1","[6]; 2.5 mM furosemide, after 15 minutes of perfusion",increased in magnitude
same,"spontaneous burst discharges, CA3 and CA1","[6]; 2.5 mM furosemide, after 45 minutes of perfusion",blocked in a reversible manner
same,spontaneous burst discharges,[6]; removal of calcium plus extracellular chelation (0-Ca++),blocked
same,spontaneous burst discharges,"[6]; removal of magnesium (0-Mg++), 1 hours perfusion",blocked
same,formalin-induced nociception,[7],reduced
